Patent publication US20260364215A1, “Radiopharmaceutical Compositions Targeting Ephrin Type-A Receptor 2 and Uses Thereof” (PeptiDream Inc., priority 2022, published 2026)
pKd: −log10 of the molar value. Where two headings read alike, the source gives them in different places. Numbered stars: 1 amine (or outer) side, 2 acyl side, 3 side chain; on linkers, the order of the positions; unused ones are H or OH. Bridge positions count the residues as written; N and C are the ends. Square brackets hold non-standard residues; d marks the D form. Side chains are listed from the residue outwards. Peptide text beside a SMILES is read from it. * marks the point of attachment. DOTA(Lu) = O=C1CN2CCN3CCN(CC(=O)*)CCN(CC2)CC(=O)[O][Lu]([O]1)[O]C(=O)C3; NH(1-deoxy-D-glucityl) = OC[C@@H](O)[C@@H](O)[C@H](O)[C@@H](O)CN*; DOTA = O=C(O)CN1CCN(CC(=O)O)CCN(CC(=O)*)CCN(CC(=O)O)CC1; Trp(1-Me,7-Cl) = Cn1cc(C[C@H](N)C(=O)O)c2cccc(Cl)c21; dPhe(3-CONH2) = NC(=O)c1cccc(C[C@@H](N)C(=O)O)c1; NMePhe(3-CN) = CN[C@@H](Cc1cccc(C#N)c1)C(=O)O; Piperazinyl(4-CH2COOH) = O=C(O)CN1CCN(*)CC1; Trp(1-Me) = Cn1cc(C[C@H](N)C(=O)O)c2ccccc21; PEG8 = NCCOCCOCCOCCOCCOCCOCCOCCOCCC(=O)O; NMe3Pal = CN[C@@H](Cc1cccnc1)C(=O)O; NMeF = CN[C@@H](Cc1ccccc1)C(=O)O; hCit = NC(=O)NCCCC[C@H](N)C(=O)O; Gly(cBu) = N[C@H](C(=O)O)C1CCC1; NMeE = CN[C@@H](CCC(=O)O)C(=O)O; Aad = N[C@@H](CCCC(=O)O)C(=O)O; NMeN = CN[C@@H](CC(N)=O)C(=O)O; PEG2 = NCCOCCOCCC(=O)O; CO = O=C([*:1])[*:2]; βAla = NCCC(=O)O

Biological target: T1, Recombinant Human EphA2 Fc Protein (Homo sapiens, UniProt P29317)
T1 construct: purchased Elabscience
T1 sequence (P29317 24-534 limits assumed): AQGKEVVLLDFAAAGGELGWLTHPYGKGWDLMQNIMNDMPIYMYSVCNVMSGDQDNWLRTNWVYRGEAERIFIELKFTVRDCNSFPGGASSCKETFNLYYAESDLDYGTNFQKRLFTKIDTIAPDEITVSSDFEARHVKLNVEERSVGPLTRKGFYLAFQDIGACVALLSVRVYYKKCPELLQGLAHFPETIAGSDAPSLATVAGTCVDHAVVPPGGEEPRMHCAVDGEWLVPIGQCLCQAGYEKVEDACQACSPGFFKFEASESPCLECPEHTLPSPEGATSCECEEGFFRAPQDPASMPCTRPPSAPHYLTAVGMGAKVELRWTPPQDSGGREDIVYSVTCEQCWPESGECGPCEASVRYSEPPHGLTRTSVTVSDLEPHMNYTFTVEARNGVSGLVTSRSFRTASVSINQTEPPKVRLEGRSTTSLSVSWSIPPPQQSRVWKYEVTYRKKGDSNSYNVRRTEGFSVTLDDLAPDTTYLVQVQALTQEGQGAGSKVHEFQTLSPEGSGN
Assay: Interaction analysis (kinetics, KD) of peptides and conjugates against EphA2 by SPR, Biacore T200, single-cycle kinetics (Examples B15 and B22)
Assay type: binding
Method in brief: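 Biacore T200 SPR with Fc-tagged human EphA2 captured via anti-human antibody; running buffer HBS-P+ pH 7.4 with 1% DMSO, 25 °C. Five serial dilutions of peptide or conjugate run by single-cycle kinetics; KD from ka and kd after baseline subtraction.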

[1] = conjugates, Biacore T200 according to Example B15, Table B16, read-out: SPR Kd

SMILES | pKd [1] | pKd | other results
CC(C)[C@@H]1NC(=O)[C@H](Cc2cn(C)c3ccccc23)NC(=O)[C@H](CC(N)=O)N(C)C(=O)[C@H](CCCC(N)=O)NC(=O)[C@H](C2CCC2)NC(=O)[C@H](CC(N)=O)NC(=O)[C@H](Cc2ccccc2)N(C)C(=O)[C@@H](C)NC(=O)CSC[C@@H](C(=O)N[C@H](CCCCNC(=O)CN2CCN(CC(=O)O)CCN(CC(=O)O)CCN(CC(=O)O)CC2)C(=O)O)NC(=O)[C@H](CCCC(N)=O)NC(=O)[C@H]([C@@H](C)O)NC(=O)[C@H](Cc2cn(C)c3ccccc23)NC1=O.[Lu+3] [PDC_EphA2-00026773] ({CH2CO}-[dA][NMeF]N[Gly(cBu)][Aad](NH2)[NMeN][Trp(1-Me)]V[Trp(1-Me)]T[Aad](NH2)C[dK](DOTA)-OH; thioether N-12) | > 9.00 | – | –
CC(C)C[C@@H]1NC(=O)[C@H](CC(N)=O)NC(=O)[C@H](Cc2cccnc2)N(C)C(=O)[C@@H](Cc2cccc(C(N)=O)c2)NC(=O)CSC[C@@H](C(=O)N[C@@H](CCCCNC(=O)CN2CCN3CCN4CCN(CC2)CC(=O)[O][Lu]([O]C(=O)C3)[O]C(=O)C4)C(N)=O)NC(=O)[C@H](Cc2cn(C)c3ccccc23)NC(=O)[C@H](CCCCNC(N)=O)NC(=O)[C@H](Cc2cn(C)c3c(Cl)cccc23)NC(=O)[C@H](Cc2ccccc2)N(C)C(=O)[C@H](CO)NC1=O [PDC_EphA2-00026600-C301] ({CH2CO}-[dPhe(3-CONH2)][NMe3Pal]NLS[NMeF][Trp(1-Me,7-Cl)][hCit][Trp(1-Me)]CK(DOTA(Lu))-NH2; thioether N-10) | – | > 9.00 | –
C[C@H]1NC(=O)CSC[C@@H](C(N)=O)NC(=O)[C@H](CCCCNC(=O)[C@@H](Cc2ccccc2)NC(=O)CN2CCN(CC(=O)O)CCN(CC(=O)O)CCN(CC(=O)O)CC2)NC(=O)[C@H]([C@@H](C)O)NC(=O)[C@H](Cc2cn(C)c3ccccc23)NC(=O)[C@H](CCCCNC(=O)N2CCN(CC(=O)O)CC2)NC(=O)[C@H](Cc2cn(C)c3c(Cl)cccc23)NC(=O)[C@H](CCC(=O)O)N(C)C(=O)[C@H](CCCC(N)=O)NC(=O)[C@H](C2CCC2)NC(=O)[C@H](CC(N)=O)NC(=O)[C@H](Cc2cccnc2)N(C)C1=O.[Lu+3] [PDC_EphA2-00027129] ({CH2CO}-[dA][NMe3Pal]N[Gly(cBu)][Aad](NH2)[NMeE][Trp(1-Me,7-Cl)]K([CO-Piperazinyl(4-CH2COOH)])[Trp(1-Me)]TK([dF-DOTA])C-NH2; thioether N-12) | > 9.00 | – | –
C[C@@H](O)[C@@H]1NC(=O)[C@H](Cc2cn(C)c3ccccc23)NC(=O)[C@H](CCC(=O)NC[C@H](O)[C@@H](O)[C@H](O)[C@H](O)CO)NC(=O)[C@H](Cc2cn(C)c3c(Cl)cccc23)NC(=O)[C@H](CC(N)=O)N(C)C(=O)[C@H](CCCC(N)=O)NC(=O)[C@H](C2CCC2)NC(=O)[C@H](CC(N)=O)NC(=O)[C@H](Cc2cccc(C#N)c2)N(C)C(=O)[C@@H](Cc2cccc(C(N)=O)c2)NC(=O)CSC[C@@H](C(=O)N[C@H](CCCCNC(=O)CN2CCN3CCN4CCN(CC2)CC(=O)[O][Lu]([O]C(=O)C3)[O]C(=O)C4)C(N)=O)NC(=O)[C@H](CCCC(N)=O)NC1=O [PDC_EphA2-00022615-C302] ({CH2CO}-[dPhe(3-CONH2)][NMePhe(3-CN)]N[Gly(cBu)][Aad](NH2)[NMeN][Trp(1-Me,7-Cl)]E(NH(1-deoxy-D-glucityl))[Trp(1-Me)]T[Aad](NH2)C[dK](DOTA(Lu))-NH2; thioether N-12) | – | > 9.00 | –
C[C@@H](O)[C@@H]1NC(=O)[C@H](Cc2cn(C)c3ccccc23)NC(=O)[C@H](CCC(=O)NC[C@H](O)[C@@H](O)[C@H](O)[C@H](O)CO)NC(=O)[C@H](Cc2cn(C)c3c(Cl)cccc23)NC(=O)[C@H](Cc2cccnc2)N(C)C(=O)[C@H](CCCC(N)=O)NC(=O)[C@H](C2CCC2)NC(=O)[C@H](CC(N)=O)NC(=O)[C@H](Cc2cccnc2)N(C)C(=O)[C@@H](Cc2cccc(C(N)=O)c2)NC(=O)CSC[C@@H](C(N)=O)NC(=O)[C@H](CCCC(N)=O)NC1=O [PDC_EphA2-00019437] ({CH2CO}-[dPhe(3-CONH2)][NMe3Pal]N[Gly(cBu)][Aad](NH2)[NMe3Pal][Trp(1-Me,7-Cl)]E(NH(1-deoxy-D-glucityl))[Trp(1-Me)]T[Aad](NH2)C-NH2; thioether N-12) | – | – | pKd (peptides, Biacore T200, 25 °C, Table B12, read-out: SPR Kd): > 9.00
CC(C)C[C@@H]1NC(=O)[C@H](CC(N)=O)NC(=O)[C@H](Cc2ccccc2)N(C)C(=O)[C@@H](C)NC(=O)CSC[C@@H](C(=O)NCCC(=O)N[C@H](CCCCNC(=O)CCOCCOCCNC(=O)CCOCCOCCOCCOCCOCCOCCOCCOCCNC(=O)CN2CCN(CC(=O)O)CCN(CC(=O)O)CCN(CC(=O)O)CC2)C(N)=O)NC(=O)[C@H](CCC(=O)O)NC(=O)[C@H]([C@@H](C)O)NC(=O)[C@H](Cc2cn(C)c3ccccc23)NC(=O)[C@H](C(C)C)NC(=O)[C@H](Cc2cn(C)c3ccccc23)NC(=O)[C@H](Cc2ccccc2)N(C)C(=O)[C@H](CCCC(=O)O)NC1=O.[Lu+3] [PDC_EphA2-00001417-C304] ({CH2CO}-[dA][NMeF]NL[Aad][NMeF][Trp(1-Me)]V[Trp(1-Me)]TEC[βAla][dK]([PEG2-PEG8-DOTA])-NH2; thioether N-12) | 8.00 to 9.00 | – | –
